Assay results as given in the supplement of paper PMC10307832.

Key:
Test in all cases: relative viability (nuclei count vs DMSO), 5 days (fraction); higher = more cells survive
NCI-H1666 = tested on: NCI-H1666
In short: (§1)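 Medians of duplicate plates are given as relative viability. That measure is the nuclei count in treated wells divided by the count in vehicle wells. Counts were taken on 4× images of lung cancer cell lines in 1536-well plates, 5 days after pin-tool dosing the day after seeding with one drug alone or a fixed anchor-drug dose plus five library-drug doses (not always all listed) in √10 steps.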

RERF-LC-KJ = tested on: RERF-LC-KJ
In short: as §1

NCI-H1793 = tested on: NCI-H1793
In short: as §1

EKVX = tested on: EKVX
In short: as §1

NCI-H23 = tested on: NCI-H23
In short: as §1

LCLC-97TM1 = tested on: LCLC-97TM1
In short: as §1

BEN = tested on: BEN
In short: as §1

NCI-H838 = tested on: NCI-H838
In short: as §1

NCI-H2228 = tested on: NCI-H2228
In short: as §1

NCI-H1915 = tested on: NCI-H1915
In short: as §1

NCI-H1355 = tested on: NCI-H1355
In short: as §1

NCI-H2347 = tested on: NCI-H2347
In short: as §1

LC-2-ad = tested on: LC-2-ad
In short: as §1

NCI-H1650 = tested on: NCI-H1650
In short: as §1

PC-3 [JPC-3] = tested on: PC-3 [JPC-3]
In short: as §1

LOU-NH91 = tested on: LOU-NH91
In short: as §1

NCI-H1993 = tested on: NCI-H1993
In short: as §1

NCI-H520 = tested on: NCI-H520
In short: as §1

LU99A = tested on: LU99A
In short: as §1

SW 1573 = tested on: SW 1573
In short: as §1

NCI-H460 = tested on: NCI-H460
In short: as §1

NCI-H650 = tested on: NCI-H650
In short: as §1

A-427 = tested on: A-427
In short: as §1

Cc1cnc(-c2cnc(NCCNc3ccc(C#N)cn3)nc2-c2ccc(Cl)cc2Cl)[nH]1 + N=C(N)NC(=N)NCCc1ccccc1 [Phenformin] (partner 250 µM)
relative viability (NCI-H1666; first compound 0.08 µM): 0.548 | relative viability (NCI-H1666; first compound 0.253 µM): 0.563 | relative viability (NCI-H1666; first compound 0.8 µM): 0.553 | relative viability (NCI-H1666; first compound 2.53 µM): 0.572 | relative viability (RERF-LC-KJ; first compound 0.08 µM): 0.436 | relative viability (RERF-LC-KJ; first compound 0.253 µM): 0.445 | relative viability (RERF-LC-KJ; first compound 0.8 µM): 0.426 | relative viability (RERF-LC-KJ; first compound 2.53 µM): 0.354 | relative viability (NCI-H1793; first compound 0.08 µM): 0.397 | relative viability (NCI-H1793; first compound 0.253 µM): 0.333 | relative viability (NCI-H1793; first compound 0.8 µM): 0.355 | relative viability (NCI-H1793; first compound 2.53 µM): 0.375 | relative viability (EKVX; first compound 0.08 µM): 0.192 | relative viability (EKVX; first compound 0.253 µM): 0.226 | relative viability (EKVX; first compound 0.8 µM): 0.196 | relative viability (EKVX; first compound 2.53 µM): 0.222 | relative viability (NCI-H23; first compound 0.08 µM): 0.836 | relative viability (NCI-H23; first compound 0.253 µM): 0.69 | relative viability (NCI-H23; first compound 0.8 µM): 0.742 | relative viability (NCI-H23; first compound 2.53 µM): 0.782 | relative viability (LCLC-97TM1; first compound 0.08 µM): 0.481 | relative viability (LCLC-97TM1; first compound 0.8 µM): 0.535 | relative viability (LCLC-97TM1; first compound 2.53 µM): 0.462 | relative viability (BEN; first compound 0.08 µM): 0.232 | relative viability (BEN; first compound 0.253 µM): 0.269 | relative viability (BEN; first compound 0.8 µM): 0.252 | relative viability (BEN; first compound 2.53 µM): 0.261 | relative viability (NCI-H838; first compound 0.08 µM): 0.634 | relative viability (NCI-H838; first compound 0.253 µM): 0.601 | relative viability (NCI-H838; first compound 0.8 µM): 0.594 | relative viability (NCI-H838; first compound 2.53 µM): 0.709 | relative viability (NCI-H2228; first compound 0.08 µM): 0.256 | relative viability (NCI-H2228; first compound 0.253 µM): 0.357 | relative viability (NCI-H2228; first compound 0.8 µM): 0.366 | relative viability (NCI-H2228; first compound 2.53 µM): 0.228 | relative viability (NCI-H1915; first compound 0.08 µM): 0.378 | relative viability (NCI-H1915; first compound 0.253 µM): 0.346 | relative viability (NCI-H1915; first compound 0.8 µM): 0.356 | relative viability (NCI-H1915; first compound 2.53 µM): 0.389 | relative viability (NCI-H1355; first compound 0.08 µM): 0.476 | relative viability (NCI-H1355; first compound 0.253 µM): 0.45 | relative viability (NCI-H1355; first compound 0.8 µM): 0.479 | relative viability (NCI-H1355; first compound 2.53 µM): 0.446 | relative viability (NCI-H2347; first compound 0.08 µM): 0.425 | relative viability (NCI-H2347; first compound 0.253 µM): 0.5 | relative viability (NCI-H2347; first compound 0.8 µM): 0.397 | relative viability (NCI-H2347; first compound 2.53 µM): 0.477 | relative viability (LC-2-ad; first compound 0.08 µM): 0.591 | relative viability (LC-2-ad; first compound 0.253 µM): 0.515 | relative viability (LC-2-ad; first compound 2.53 µM): 0.487 | relative viability (NCI-H1650; first compound 0.08 µM): 0.497 | relative viability (NCI-H1650; first compound 0.253 µM): 0.428 | relative viability (NCI-H1650; first compound 0.8 µM): 0.384 | relative viability (NCI-H1650; first compound 2.53 µM): 0.276 | relative viability (PC-3 [JPC-3]; first compound 0.08 µM): 0.478 | relative viability (PC-3 [JPC-3]; first compound 0.253 µM): 0.474 | relative viability (PC-3 [JPC-3]; first compound 0.8 µM): 0.508 | relative viability (PC-3 [JPC-3]; first compound 2.53 µM): 0.473 | relative viability (LOU-NH91; first compound 0.08 µM): 0.769 | relative viability (LOU-NH91; first compound 0.253 µM): 0.674 | relative viability (LOU-NH91; first compound 0.8 µM): 0.756 | relative viability (LOU-NH91; first compound 2.53 µM): 0.567 | relative viability (NCI-H1993; first compound 0.08 µM): 0.493 | relative viability (NCI-H1993; first compound 0.253 µM): 0.477 | relative viability (NCI-H1993; first compound 0.8 µM): 0.521 | relative viability (NCI-H1993; first compound 2.53 µM): 0.535 | relative viability (NCI-H520; first compound 0.08 µM): 0.861 | relative viability (NCI-H520; first compound 0.253 µM): 0.628 | relative viability (NCI-H520; first compound 0.8 µM): 0.542 | relative viability (NCI-H520; first compound 2.53 µM): 0.641 | relative viability (LU99A; first compound 0.08 µM): 0.972 | relative viability (LU99A; first compound 0.253 µM): 0.769 | relative viability (LU99A; first compound 0.8 µM): 0.962 | relative viability (LU99A; first compound 2.53 µM): 0.752 | relative viability (SW 1573; first compound 0.08 µM): 0.515 | relative viability (SW 1573; first compound 0.253 µM): 0.334 | relative viability (SW 1573; first compound 0.8 µM): 0.436 | relative viability (SW 1573; first compound 2.53 µM): 0.3 | relative viability (NCI-H460; first compound 0.08 µM): 0.551 | relative viability (NCI-H460; first compound 0.253 µM): 0.452 | relative viability (NCI-H460; first compound 0.8 µM): 0.513 | relative viability (NCI-H460; first compound 2.53 µM): 0.41 | relative viability (NCI-H650; first compound 0.08 µM): 0.468 | relative viability (NCI-H650; first compound 0.253 µM): 0.438 | relative viability (NCI-H650; first compound 0.8 µM): 0.489 | relative viability (NCI-H650; first compound 2.53 µM): 0.417 | relative viability (A-427; first compound 0.08 µM): 0.307 | relative viability (A-427; first compound 0.253 µM): 0.327 | relative viability (A-427; first compound 0.8 µM): 0.378 | relative viability (A-427; first compound 2.53 µM): 0.342
